EP1004309A1, “ISRAPAFANT-CONTAINING WATER-BASE PREPARATIONS” (Senju Pharmaceutical Co., Ltd., priority 1997, dated 1998)
In brackets after ≈: the same amount, converted by molar mass. Entries after “also recorded” stand apart in the source; their conditions may differ. One block for each compound: values may come before it.

What was measured:
[1] = Dissolution test: solubility of israpafant in buffers, by HPLC; assay type: physicochemical; conditions: 0.1% acetate, phosphate and borate buffers, 25 °C, aqueous buffer, thermodynamic from solid; each buffer (pH 4, 5, 6, 7, 8 and 9); below detection limit by HPLC
Description: Israpafant (manufactured by Yoshitomi Pharmaceutical Industries, Ltd.) was suspended in 0.1% acetate buffer (pH 4, 5, 6), phosphate buffer (pH 6, 7, 8) and borate buffer (pH 8, 9) in a concentration of 0.1% (w/v%, hereinafter the same). Each suspension was filled in a glass ampoule by 5 ml and shaken at 25°C overnight (ca. 15 hours). After passing through a 0.45 µm membrane filter, the solubility of israpafant was measured by HPLC.
(§1) • column: YMC AM-302 (4.6×150 mm) • mobile phase: acetonitrile:0.1M ammonium acetate-87:13 • detection: UV 244 nm • column temperature:35°C • flow rate: 0.7 ml/min • internal standard:1,3,5-triphenylbenzene

[2] = Dissolution test: solubility of israpafant in aqueous solutions containing additives, by HPLC; assay type: physicochemical; conditions: for solubility: 0.1% phosphate buffer with dissolved additive, 25 °C, pH 7, aqueous with cosolvent or surfactant or cyclodextrin, thermodynamic from solid
Description: In 0.1% phosphate buffer (pH 7) were dissolved the additives shown in Table 2 in a proportion of 0.5% (0.5% and 4% in the sole case of polysorbate). In the same manner as above, israpafant was suspended and dissolved, after which the solubility of israpafant was measured by HPLC.
as §1

Solubility in water = assay type: physicochemical; conditions: water at 25°C
[3] = test system: guinea pig active sensitization allergic conjunctivitis; assay: Suppressive effect against promotion of conjunctival vascular permeability (early phase reaction), dye-leakage; assay type: in vivo; conditions: 30 minutes after second challenge
Description: (§2) Male Hartley guinea pigs weighing about 300 g purchased from Japan SLC. Ltd. were used. These animals had free access to a solid feed (γ ray irradiated feed LRC4, ORIENTAL YEAST CO., LTD.) and tap water, and were bred in a breeding chamber set to a temperature 23 ±2°C and humidity 55±15%.
(§3) Israpafant (manufactured by Yoshitomi Pharmaceutical Industries, Ltd.) was suspended in a vehicle (pH 5) shown below at a concentration of 1% to give an eye drop suspension. In addition, a suspension of israpafant in 0.5% CMC at 10 mg/ml was prepared for oral administration. As a control, physiological saline was used.
Guinea pigs were sensitized with a dispersion of 10 µg ovalbumin (OA) and 30 mg aluminum hydroxide gel by peritoneal administration. At 14 days after the sensitization, a 2.5% OA antigen solution was instilled into the both eyes by 10 µl to induce allergic conjunctivitis (first challenge). At 20 minutes after the last challenge, conjunctivitis signs were observed and the animals were grouped in such a manner that the severity of the condition was equalized from the degrees of chemosis, conjunctival injection and tearing.
The evaluation of a drug included the following steps. At 24 hours from the first challenge, 10 mg/kg Evans' blue was intravenously administered, and a 2.5% OA antigen solution was instilled into the both eyes by 10 µl to again induce conjunctivitis (the second challenge). Thirty minutes later, conjunctival dye-leakage part was excised, the parts of the both eyes were combined and the amount of the leaked dye was measured. The drug was instilled into the both eyes by 10 µl at 3, 2, 1 hour before the second challenge in the case of administration by instillation. In the case of an oral administration, 10 mg/kg was administered once at 1 hour before the second challenge. For suppression of histamine reaction, 1 mg/kg of mepyramine was intravenously administered one minute before.
(§4) • physiological saline (control group) • 1.0% israpafant (instillation group) • 10 mg/kg israpafant p.o. (oral group) • 1 mg/kg mepyramine i.v. (intravenous injection group) • 1.0% israpafant + 1 mg/kg mepyramine i.v. (concurrent instillation group) • 10 mg/kg israpafant p.o.+1 mg/kg mepyramine i.v. (concurrent instillation group)

[4] = test system: guinea pig active sensitization allergic conjunctivitis; assay: Suppressive effect against immediate allergic conjunctivitis signs (early phase reaction), total score; assay type: in vivo; conditions: 1% israpafant instillation 10 µl one eye at 2, 4, 8 hours after first challenge and 3, 2, 1 hour before second challenge; 20 minutes after second challenge; versus physiological saline control
Description: as §2, §3
In the same manner as in 1), sensitization and induction by the first challenge and the second challenge were performed. […]

[5] = test system: guinea pig active sensitization allergic conjunctivitis; assay: Suppressive effect against eosinophil infiltration into conjunctiva (late phase reaction); assay type: in vivo
Description: as §2, §3
In the same manner as in 1), sensitization and induction by first challenge and second challenge were performed.
The drug was evaluated by removing the eye ball at 6 hours after the second challenge, preparing an optical microscopic specimen according to a conventional method, staining eosinophils by Luna staining, and counting and averaging the number of eosinophils infiltrated into conjunctiva with regard to each of 6 visible areas (one visible area being 0.04 mm^2) of the vicinity of conjunctival lymphoid tissue. The drug was administered in the same manner as in 1).
as §4

rat PAF conjunctivitis = assay: Rat PAF conjunctivitis, conjunctival dye-leakage after eye drop; assay type: in vivo; conditions: for inhibition: dye leakage; for amount of dye leakage: instillation 5 µl at 1, 2 hours before PAF, mean±standard error
Description: Male Wistar rats weighing about 130 g purchased from Clea Japan, Inc. were used. They were bred at temperature 23±2°C and humidity 55±15%.
Israpafant was suspended at 0.03, 0.1, 0.3 and 1.0%. Physiological saline was used for the control group.
The formulation of the vehicle for an israpafant eye drop was as shown below, wherein the pH of the eye drop at each concentration was 7.0.
PAF diluted to 4 µg/ml was administered to the upper subconjunctiva of the rat by 25 µl and at the same time, 0.5% Evans' blue (0.5 ml) was intravenously administered. Thirty minutes later, the dye-leakage part of the conjunctiva was excised and the dye was extracted with formamide, after which absorbance (625 nm) was measured. The test drug was administered by instillation (5 µl) to the eye at 1, 2 hours before subconjunctival induction of PAF.

- solubility [1]: < 0.05 µg/mL
- solubility ([2]; 0.5% BAK in 0.1% phosphate buffer (pH 7)): 99 µg/mL (≈ 202 µM)
- solubility ([2]; 0.5% HCO60 in 0.1% phosphate buffer (pH 7)): 47.3 µg/mL (≈ 96.7 µM)
- solubility ([2]; 0.5% HPMC in 0.1% phosphate buffer (pH 7)): 0.6 µg/mL (≈ 1.23 µM)
- solubility ([2]; 0.5% PVA(EG40) in 0.1% phosphate buffer (pH 7)): 0.4 µg/mL (≈ 0.818 µM)
- solubility ([2]; 0.5% SDS in 0.1% phosphate buffer (pH 7)): 1060 µg/mL (≈ 2160 µM)
- solubility ([2]; 0.5% Tyloxapol in 0.1% phosphate buffer (pH 7)): 29.5 µg/mL (≈ 60.3 µM)
- solubility ([2]; 0.5% polysorbate 80 in 0.1% phosphate buffer (pH 7)): 66.9 µg/mL (≈ 137 µM)
- solubility ([2]; polysorbate 80 (4% aq. solution) in 0.1% phosphate buffer (pH 7)): 581 µg/mL (≈ 1190 µM)
- dissolution (in words) ([2]; 0.5% aqueous sodium dodecylsulfate solution): dissolved extremely well
- dissolution (in words) ([2]; 4% aqueous polysorbate solution): dissolved extremely well
- dissolution (in words) ([2]; aqueous solution containing a water soluble polymer or cyclodextrin): did not dissolve
- dissolution (in words) ([2]; aqueous surfactant solution): dissolved well
- solubility in water (Solubility in water): less than 0.01 w/v%
SMILES: Cc1nnc2n1-c1sc(CCc3ccc(CC(C)C)cc3)cc1C(c1ccccc1Cl)=NC2C (stereo not drawn) [israpafant, 4-(2-Chlorophenyl)-2-[2-(4-isobutylphenyl)ethyl]-6,9-dimethyl-6H-thieno[3,2-f][1,2,4]triazolo[4,3-a][1,4]diazepine]
- dye-leakage ([3]; 10 mg/kg israpafant p.o. + 1 mg/kg mepyramine i.v. (oral concurrent group)): 10.1 µg/two eye balls
- dye-leakage ([3]; 10 mg/kg israpafant p.o. once 1 hour before second challenge, control 34.5 µg): 25.3 µg/two eye balls
- dye-leakage ([3]; 1.0% israpafant eye drop suspension, instillation 10 µl both eyes at 3, 2, 1 hour before second challenge, control 34.5 µg): 24.7 µg/two eye balls
- dye-leakage ([3]; 1.0% israpafant instillation + 1 mg/kg mepyramine i.v. (concurrent instillation group)): 11.0 µg/two eye balls
- total score of conjunctivitis signs [4]: significant decrease
- suppressive effect on eosinophil infiltration (in words) ([5]; 10 mg/kg israpafant p.o. (oral group), 6 hours after second challenge): no suppressive effect; also recorded: no effect was found; also recorded: no effect was observed
- suppressive effect on eosinophil infiltration (in words) ([5]; 10 mg/kg israpafant p.o. + 1 mg/kg mepyramine i.v. (concurrent oral administration group), almost the same as mepyramine alone): suppressive effect
- suppressive effect on eosinophil infiltration (in words) ([5]; 1.0% israpafant instillation + 1 mg/kg mepyramine i.v. (concurrent instillation group), almost the same as mepyramine alone): suppressive effect
- eosinophil infiltration count ([5]; 1.0% israpafant instillation, 6 hours after second challenge, control 95.3): 71.8 cell/0.04 mm^2
- inhibition (rat PAF conjunctivitis; eye drop suspension 0.03% (dose 3 µg)): 19.1%
- inhibition (rat PAF conjunctivitis; eye drop suspension 0.1% (dose 10 µg)): 29.6%
- inhibition (rat PAF conjunctivitis; eye drop suspension 0.3% (dose 30 µg)): 41.6%
- inhibition (rat PAF conjunctivitis; eye drop suspension 1.0% (dose 100 µg)): 53.2%
- amount of dye leakage (rat PAF conjunctivitis; eye drop suspension 0.03% (dose 3 µg), saline 40.03±2.57): 32.29±3.31 µg/site
- amount of dye leakage (rat PAF conjunctivitis; eye drop suspension 0.1% (dose 10 µg), p<0.01): 28.17±1.42 µg/site
- amount of dye leakage (rat PAF conjunctivitis; eye drop suspension 0.3% (dose 30 µg), p<0.01): 23.37±2.56 µg/site
- amount of dye leakage (rat PAF conjunctivitis; eye drop suspension 1.0% (dose 100 µg), p<0.01): 18.74±2.20 µg/site

SMILES: COc1ccc(CN(CCN(C)C)c2ccccn2)cc1 [mepyramine, reference compound]
- dye-leakage ([3]; 1 mg/kg mepyramine i.v. one minute before, control 34.5 µg): 17.5 µg/two eye balls
- suppressive effect on eosinophil infiltration (in words) ([5]; 1 mg/kg mepyramine i.v., 6 hours after second challenge): suppressive effect
